A word on the solubility: it is how much of the substance goes into solution per volume. Read a high solubility as a readily soluble substance. The term MBC denotes the smallest concentration meeting the test's criterion for killing. As a reminder, the MIC is the lowest concentration found to suppress growth.

Series [1] is described as follows: Water solubility by UV-Vis (Lambert–Beer law). In kind it is physicochemical. The following applies: thermodynamic from solid, saturated aqueous solution, 30× dilution, room temperature / 35 °C (method). The source says: We diluted this solution into a series of working solutions to measure their UV-Vis spectra.
In series [2] the test system is Proteus vulgaris. Nature of the series: In vitro antibacterial activity (MIC/MBC, doubling dilution). It is filed as cell-based. The following applies: P. vulgaris, 37 °C, 24 h. Here is the method: (§1) The clinically typical pathogens (Staphylococcus aureus, Escherichia coli, Pseudomonas aeruginosa, Salmonellosis typhoidal and Proteus vulgaris) were obtained from the Department of Microbiology and Immunology of Guangxi Medical University. We cultured the bacterial suspension of five pathogens in bouillon culture-medium at 37 °C, and diluted it into 0.5 McFarland Standard with bioclean normal saline (the volume ratio of each bacterial suspension and bioclean normal saline was 1:1000, and the concentration of bacterial suspension was 1~2 × 10^8 CFU/mL). […] We carried out the assays for MIC and MBC evaluation by doubling the dilution under sterile operation on the clean bench. To be specific, we set the sterile test tubes numbered 1–10 for comparison according to the half-dilution method. We added the broth medium to each test tube to fix the final volume to be 2 mL. […] Then, we filled each tube with 50 μL of inoculated bacteria colony, except for tube no. 9, which was the negative control. The final colony concentration in each test tube was 2 × 10^5 CFU/mL. Tube no. 10 was set as a blank without the tested drug. […] We repeated all tests in triplicate.

For series [3], the system named is Pseudomonas aeruginosa. Described as above. In kind it is cell-based. The following applies: P. aeruginosa, 37 °C, 24 h. Here is the method: as §1
The subject of series [4] is Staphylococcus aureus. Described as above. It is filed as cell-based. The following applies: S. aureus, 37 °C, 24 h. The procedure: as §1
The conditions of series [5]: rat, in vivo, po.
Series [6] relates to KM mice. In kind it is in vivo. The following applies: high-dose group, dead mice, HE staining. The procedure: After the acute toxicity test, the dead mice after oral administration and the surviving mice at the end of the observation period were promptly dissected and pathologically examined. […] We dissected the important organs (heart, liver, spleen, lung, kidney, large intestine, and small intestine) of dead mice and normal mice in the high-dose group of each drug solution. Then, the main organs were fixed in 10% buffered formalin and embedded in paraffin for 1–4 h. They were histopathologically examined under the optical microscope after slicing and staining with hematoxylin-eosin (HE) staining. No fixed parameters were compared between the treatment and control groups.

Converted amounts (≈) assume the structure as drawn.

Compound `CCN1CCN(c2cc3c(cc2F)c(=O)c(C(=O)O)cn3C2CC2)CC1` [EFX, enrofloxacin, reference compound] gave a solubility in series [1] of 204 µg/mL (≈ 568 µM). The values for the MBC in series [2], in series [3] and in series [4] were 0.125 µg/mL (≈ 0.348 µM), 0.125 µg/mL (≈ 0.348 µM) and 0.25 µg/mL (≈ 0.696 µM), respectively. The MIC in series [2] was found to be 0.125 µg/mL (≈ 0.348 µM); in series [3], 0.125 µg/mL (≈ 0.348 µM); in series [4] it was 0.25 µg/mL (≈ 0.696 µM). This compound also showed a Cl in series [5] (male, SD) of 0.6167 mL/min/kg. In series [5] (male, SD), this compound returned a Vd of 1.05316 L/kg. Besides, in series [5], the Tmax stood at 1 H.

As to `CCN1CCN(c2cc3c(cc2F)c(=O)c(C(=O)[O-])cn3C2CC2)CC1.CCN1CCN(c2cc3c(cc2F)c(=O)c(C(=O)[O-])cn3C2CC2)CC1.O.O.O.O.[Ca+2]` [EFX-Ca, [Ca(EFX)2(H2O)4]·H2O], in series [6], the “histopathological finding in kidney tissue” value is “enlargement of the renal capsule” and the “histopathological finding in lung tissue” value is “significant inflammatory cell infiltration of the lung tissue”.

For the origin of these results see article PMC8878047 (Pharmaceutics, 2022).
